Assays:
[1] = biological target: TGF-beta receptor type-2 (Homo sapiens) (UniProt P37173); assay: Inhibition of T7 bacteriophage fused human TGFBR2 at 10 uM by KINOMEscan analysis relative to control
[2] = biological target: Serine/threonine-protein kinase 32A (Homo sapiens) (UniProt Q8WU08); assay: Inhibition of T7 bacteriophage fused human YANK1 at 10 uM by KINOMEscan analysis relative to control
[3] = biological target: Ribosomal protein S6 kinase beta-1 (Homo sapiens) (UniProt P23443); assay: Inhibition of T7 bacteriophage fused human S6K1 at 10 uM by KINOMEscan analysis relative to control
Chain of Ribosomal protein S6 kinase beta-1 (Homo sapiens) (P23443 whole entry, looked up, the tested form may be a part): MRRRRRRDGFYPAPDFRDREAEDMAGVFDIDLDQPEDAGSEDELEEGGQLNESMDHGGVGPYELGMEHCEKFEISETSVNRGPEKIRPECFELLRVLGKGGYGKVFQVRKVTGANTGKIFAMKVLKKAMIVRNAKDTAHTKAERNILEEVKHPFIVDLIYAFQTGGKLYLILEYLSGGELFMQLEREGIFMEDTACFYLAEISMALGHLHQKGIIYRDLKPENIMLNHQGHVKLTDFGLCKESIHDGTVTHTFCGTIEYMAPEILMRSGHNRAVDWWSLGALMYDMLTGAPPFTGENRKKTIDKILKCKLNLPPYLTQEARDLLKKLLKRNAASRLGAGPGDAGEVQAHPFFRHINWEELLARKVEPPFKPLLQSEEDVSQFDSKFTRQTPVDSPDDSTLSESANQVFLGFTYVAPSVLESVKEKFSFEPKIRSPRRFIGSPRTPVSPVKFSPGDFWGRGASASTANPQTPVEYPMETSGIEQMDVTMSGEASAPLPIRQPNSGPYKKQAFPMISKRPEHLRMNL

[4] = biological target: Serine/threonine-protein kinase 32C (Homo sapiens) (UniProt Q86UX6); assay: Inhibition of T7 bacteriophage fused human YANK3 at 10 uM by KINOMEscan analysis relative to control
[5] = biological target: Serine/threonine-protein kinase 4 (Homo sapiens) (UniProt Q13043); assay: Inhibition of T7 bacteriophage fused human MST1 at 10 uM by KINOMEscan analysis relative to control; values are per cent of control
[6] = biological target: Ribosomal protein S6 kinase alpha-2 (Homo sapiens) (UniProt Q15349); assay: Inhibition of T7 bacteriophage fused human N-terminal RSK3 Kinase domain-1 at 10 uM by KINOMEscan analysis relative to control
[7] = biological target: Activated CDC42 kinase 1 (Homo sapiens) (UniProt Q07912); assay: Inhibition of T7 bacteriophage fused human TNK2 at 10 uM by KINOMEscan analysis relative to control
Chain of Activated CDC42 kinase 1 (Homo sapiens) (Q07912 whole entry, looked up, the tested form may be a part): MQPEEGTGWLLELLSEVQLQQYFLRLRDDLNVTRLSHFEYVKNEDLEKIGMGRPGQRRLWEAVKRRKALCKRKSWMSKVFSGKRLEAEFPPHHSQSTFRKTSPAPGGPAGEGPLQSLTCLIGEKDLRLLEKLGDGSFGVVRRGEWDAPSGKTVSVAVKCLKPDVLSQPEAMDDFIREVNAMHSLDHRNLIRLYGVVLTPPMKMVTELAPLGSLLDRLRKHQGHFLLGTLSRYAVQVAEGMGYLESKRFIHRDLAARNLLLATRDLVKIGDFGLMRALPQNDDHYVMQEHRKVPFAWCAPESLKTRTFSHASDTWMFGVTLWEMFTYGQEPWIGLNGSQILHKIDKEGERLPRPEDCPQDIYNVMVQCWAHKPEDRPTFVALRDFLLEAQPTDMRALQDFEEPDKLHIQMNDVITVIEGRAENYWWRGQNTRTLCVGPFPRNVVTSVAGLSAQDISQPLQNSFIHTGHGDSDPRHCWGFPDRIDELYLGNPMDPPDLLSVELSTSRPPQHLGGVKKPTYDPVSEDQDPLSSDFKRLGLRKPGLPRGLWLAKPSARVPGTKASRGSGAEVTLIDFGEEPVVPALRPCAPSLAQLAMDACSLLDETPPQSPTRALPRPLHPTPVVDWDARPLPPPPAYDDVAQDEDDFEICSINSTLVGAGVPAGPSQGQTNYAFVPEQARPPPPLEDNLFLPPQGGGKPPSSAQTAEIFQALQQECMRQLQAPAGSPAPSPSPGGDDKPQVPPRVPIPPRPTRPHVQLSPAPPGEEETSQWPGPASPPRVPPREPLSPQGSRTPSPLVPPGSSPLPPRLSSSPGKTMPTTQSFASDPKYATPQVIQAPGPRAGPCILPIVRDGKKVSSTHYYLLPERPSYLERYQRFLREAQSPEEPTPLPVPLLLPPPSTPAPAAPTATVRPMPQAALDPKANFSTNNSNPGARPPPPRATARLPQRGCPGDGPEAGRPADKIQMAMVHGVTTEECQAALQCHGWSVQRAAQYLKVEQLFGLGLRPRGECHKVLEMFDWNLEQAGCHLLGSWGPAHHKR

[8] = biological target: T1, Mitogen-activated protein kinase kinase kinase 19 (Homo sapiens) (UniProt Q56UN5); assay: Inhibition of T7 bacteriophage fused human YSK4 at 10 uM by KINOMEscan analysis relative to control
T1 sequence (whole entry): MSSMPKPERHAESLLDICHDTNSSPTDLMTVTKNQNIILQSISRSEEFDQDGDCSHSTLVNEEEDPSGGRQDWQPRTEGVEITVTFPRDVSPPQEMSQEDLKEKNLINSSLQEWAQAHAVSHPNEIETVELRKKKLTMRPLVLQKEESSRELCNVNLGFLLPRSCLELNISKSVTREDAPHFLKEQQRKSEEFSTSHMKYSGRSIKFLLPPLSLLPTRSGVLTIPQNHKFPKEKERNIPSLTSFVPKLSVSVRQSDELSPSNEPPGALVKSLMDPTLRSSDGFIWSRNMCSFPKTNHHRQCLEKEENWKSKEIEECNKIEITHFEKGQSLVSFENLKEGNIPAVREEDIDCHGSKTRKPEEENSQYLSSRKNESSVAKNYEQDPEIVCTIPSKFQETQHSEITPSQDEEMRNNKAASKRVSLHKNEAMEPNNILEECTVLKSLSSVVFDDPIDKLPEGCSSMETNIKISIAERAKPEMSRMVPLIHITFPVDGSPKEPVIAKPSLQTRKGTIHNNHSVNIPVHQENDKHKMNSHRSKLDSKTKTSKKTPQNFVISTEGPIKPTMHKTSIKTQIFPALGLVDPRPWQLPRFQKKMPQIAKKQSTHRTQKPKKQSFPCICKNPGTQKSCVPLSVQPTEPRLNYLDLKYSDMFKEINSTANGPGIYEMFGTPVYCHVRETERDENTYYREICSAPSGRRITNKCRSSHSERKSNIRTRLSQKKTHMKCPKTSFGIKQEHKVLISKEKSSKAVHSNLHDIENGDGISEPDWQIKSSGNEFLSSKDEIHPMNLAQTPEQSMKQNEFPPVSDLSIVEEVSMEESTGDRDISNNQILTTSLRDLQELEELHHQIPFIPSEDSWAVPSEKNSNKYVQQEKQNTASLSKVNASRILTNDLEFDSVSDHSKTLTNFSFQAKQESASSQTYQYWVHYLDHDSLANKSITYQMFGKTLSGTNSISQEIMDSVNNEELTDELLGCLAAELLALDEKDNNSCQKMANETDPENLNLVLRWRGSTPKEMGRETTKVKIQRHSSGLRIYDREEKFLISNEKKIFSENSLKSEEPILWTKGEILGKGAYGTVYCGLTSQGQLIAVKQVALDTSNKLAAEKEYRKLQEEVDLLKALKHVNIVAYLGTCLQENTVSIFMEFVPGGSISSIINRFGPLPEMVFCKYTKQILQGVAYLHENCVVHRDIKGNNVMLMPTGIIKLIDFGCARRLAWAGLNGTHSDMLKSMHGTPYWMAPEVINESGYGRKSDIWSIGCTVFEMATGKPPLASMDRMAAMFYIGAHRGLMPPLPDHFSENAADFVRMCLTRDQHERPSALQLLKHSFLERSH

[9] = biological target: Vascular endothelial growth factor receptor 2 (Homo sapiens) (UniProt P35968); assay: Inhibition of T7 bacteriophage fused human VEGFR2 at 10 uM by KINOMEscan analysis relative to control
Chain of Vascular endothelial growth factor receptor 2 (Homo sapiens) (P35968 whole entry, the tested form may be a part): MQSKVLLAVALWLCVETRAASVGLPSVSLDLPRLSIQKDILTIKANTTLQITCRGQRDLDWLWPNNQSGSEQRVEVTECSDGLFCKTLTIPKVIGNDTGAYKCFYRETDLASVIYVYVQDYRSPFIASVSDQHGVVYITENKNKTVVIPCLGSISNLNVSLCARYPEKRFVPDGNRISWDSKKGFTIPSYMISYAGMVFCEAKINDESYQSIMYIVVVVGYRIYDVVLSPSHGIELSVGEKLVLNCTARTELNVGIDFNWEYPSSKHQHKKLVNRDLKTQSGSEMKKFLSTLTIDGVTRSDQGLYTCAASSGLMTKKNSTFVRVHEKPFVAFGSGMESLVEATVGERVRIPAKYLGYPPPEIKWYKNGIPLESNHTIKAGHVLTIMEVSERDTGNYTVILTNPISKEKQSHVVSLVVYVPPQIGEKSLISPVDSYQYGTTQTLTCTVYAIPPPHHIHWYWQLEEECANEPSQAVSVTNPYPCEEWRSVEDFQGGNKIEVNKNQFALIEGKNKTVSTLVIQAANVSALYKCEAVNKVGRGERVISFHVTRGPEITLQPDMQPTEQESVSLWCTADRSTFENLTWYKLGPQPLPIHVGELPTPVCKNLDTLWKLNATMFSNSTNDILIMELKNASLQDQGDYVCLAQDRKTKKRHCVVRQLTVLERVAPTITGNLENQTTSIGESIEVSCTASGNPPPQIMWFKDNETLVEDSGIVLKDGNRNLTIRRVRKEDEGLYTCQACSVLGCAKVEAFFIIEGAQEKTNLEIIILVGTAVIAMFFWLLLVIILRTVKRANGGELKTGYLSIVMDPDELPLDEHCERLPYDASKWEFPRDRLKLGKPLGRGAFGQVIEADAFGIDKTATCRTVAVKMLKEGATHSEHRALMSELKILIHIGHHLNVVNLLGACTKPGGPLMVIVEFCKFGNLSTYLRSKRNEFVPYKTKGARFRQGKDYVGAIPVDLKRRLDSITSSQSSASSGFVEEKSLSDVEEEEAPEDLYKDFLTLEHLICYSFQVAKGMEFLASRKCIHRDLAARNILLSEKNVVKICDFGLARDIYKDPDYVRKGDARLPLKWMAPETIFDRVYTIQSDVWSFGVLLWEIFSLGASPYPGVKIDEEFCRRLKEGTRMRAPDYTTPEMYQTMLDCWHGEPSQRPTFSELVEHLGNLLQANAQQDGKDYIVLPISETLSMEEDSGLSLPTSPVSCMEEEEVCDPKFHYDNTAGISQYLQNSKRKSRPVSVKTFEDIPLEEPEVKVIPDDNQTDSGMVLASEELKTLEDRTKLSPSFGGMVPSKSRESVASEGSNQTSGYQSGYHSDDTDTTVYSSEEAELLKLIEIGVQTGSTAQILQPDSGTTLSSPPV

[10] = biological target: T2, Serine/threonine-protein kinase TBK1 (Homo sapiens) (UniProt Q9UHD2); assay: Inhibition of T7 bacteriophage fused human TBK1 at 10 uM by KINOMEscan analysis relative to control
T2 sequence (whole entry): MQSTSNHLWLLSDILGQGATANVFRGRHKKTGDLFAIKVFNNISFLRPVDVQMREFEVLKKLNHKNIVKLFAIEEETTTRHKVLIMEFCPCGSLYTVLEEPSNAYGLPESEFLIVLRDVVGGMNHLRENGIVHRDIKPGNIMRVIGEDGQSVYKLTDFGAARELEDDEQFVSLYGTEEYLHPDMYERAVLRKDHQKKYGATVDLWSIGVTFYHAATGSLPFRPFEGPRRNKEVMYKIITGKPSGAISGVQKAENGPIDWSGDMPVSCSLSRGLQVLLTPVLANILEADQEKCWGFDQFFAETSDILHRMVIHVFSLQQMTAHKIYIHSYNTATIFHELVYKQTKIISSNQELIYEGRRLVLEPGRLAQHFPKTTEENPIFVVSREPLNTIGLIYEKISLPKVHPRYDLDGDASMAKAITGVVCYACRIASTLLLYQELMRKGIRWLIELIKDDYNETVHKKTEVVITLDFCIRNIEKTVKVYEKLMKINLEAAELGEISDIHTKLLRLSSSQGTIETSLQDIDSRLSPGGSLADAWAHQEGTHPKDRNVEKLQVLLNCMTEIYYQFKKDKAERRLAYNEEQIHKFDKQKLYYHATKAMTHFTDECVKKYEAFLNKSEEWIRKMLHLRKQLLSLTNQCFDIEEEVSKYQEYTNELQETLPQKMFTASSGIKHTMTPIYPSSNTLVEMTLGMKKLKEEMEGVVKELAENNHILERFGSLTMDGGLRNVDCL

[11] = biological target: Serine/threonine-protein kinase 32B (Homo sapiens) (UniProt Q9NY57); assay: Inhibition of T7 bacteriophage fused human YANK2 at 10 uM by KINOMEscan analysis relative to control
Chain of Serine/threonine-protein kinase 32B (Homo sapiens) (Q9NY57 whole entry, the tested form may be a part): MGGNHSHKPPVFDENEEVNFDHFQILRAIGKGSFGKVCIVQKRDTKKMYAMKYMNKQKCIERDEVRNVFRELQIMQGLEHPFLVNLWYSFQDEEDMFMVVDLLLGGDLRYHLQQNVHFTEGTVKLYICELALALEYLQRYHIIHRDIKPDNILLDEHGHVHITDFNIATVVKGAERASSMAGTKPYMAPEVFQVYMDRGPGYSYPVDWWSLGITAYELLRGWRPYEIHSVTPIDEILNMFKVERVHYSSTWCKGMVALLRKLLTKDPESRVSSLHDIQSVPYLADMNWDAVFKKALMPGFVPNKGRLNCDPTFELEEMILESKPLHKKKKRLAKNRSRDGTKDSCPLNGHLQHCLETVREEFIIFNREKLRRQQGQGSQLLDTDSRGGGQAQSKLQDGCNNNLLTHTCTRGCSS

[12] = biological target: Ribosomal protein S6 kinase alpha-6 (Homo sapiens) (UniProt Q9UK32); assay: Inhibition of T7 bacteriophage fused human N-terminal RSK4 Kinase domain-1 at 10 uM by KINOMEscan analysis relative to control
Chain of Ribosomal protein S6 kinase alpha-6 (Homo sapiens) (Q9UK32 whole entry, the tested form may be a part): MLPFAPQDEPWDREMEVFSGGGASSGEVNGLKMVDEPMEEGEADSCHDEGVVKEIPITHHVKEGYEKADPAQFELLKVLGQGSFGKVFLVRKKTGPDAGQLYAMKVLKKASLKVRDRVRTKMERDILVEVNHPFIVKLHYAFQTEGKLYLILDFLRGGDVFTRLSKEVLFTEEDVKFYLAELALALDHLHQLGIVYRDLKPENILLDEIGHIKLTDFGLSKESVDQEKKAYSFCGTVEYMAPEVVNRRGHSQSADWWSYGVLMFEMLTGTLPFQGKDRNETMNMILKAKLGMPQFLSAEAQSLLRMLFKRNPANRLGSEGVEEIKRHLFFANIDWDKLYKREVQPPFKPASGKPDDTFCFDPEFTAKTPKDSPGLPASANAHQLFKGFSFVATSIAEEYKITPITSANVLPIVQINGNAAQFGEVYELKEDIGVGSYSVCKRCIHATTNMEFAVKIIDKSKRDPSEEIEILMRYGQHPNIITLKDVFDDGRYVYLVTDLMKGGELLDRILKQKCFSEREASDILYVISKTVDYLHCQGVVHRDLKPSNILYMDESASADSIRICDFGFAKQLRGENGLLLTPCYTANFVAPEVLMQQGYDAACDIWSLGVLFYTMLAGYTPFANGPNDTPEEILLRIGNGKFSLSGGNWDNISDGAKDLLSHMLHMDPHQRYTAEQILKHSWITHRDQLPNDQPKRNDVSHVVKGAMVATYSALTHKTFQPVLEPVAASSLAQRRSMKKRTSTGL

Chain of Serine/threonine-protein kinase 32A (Homo sapiens) (Q8WU08 whole entry, the tested form may be a part): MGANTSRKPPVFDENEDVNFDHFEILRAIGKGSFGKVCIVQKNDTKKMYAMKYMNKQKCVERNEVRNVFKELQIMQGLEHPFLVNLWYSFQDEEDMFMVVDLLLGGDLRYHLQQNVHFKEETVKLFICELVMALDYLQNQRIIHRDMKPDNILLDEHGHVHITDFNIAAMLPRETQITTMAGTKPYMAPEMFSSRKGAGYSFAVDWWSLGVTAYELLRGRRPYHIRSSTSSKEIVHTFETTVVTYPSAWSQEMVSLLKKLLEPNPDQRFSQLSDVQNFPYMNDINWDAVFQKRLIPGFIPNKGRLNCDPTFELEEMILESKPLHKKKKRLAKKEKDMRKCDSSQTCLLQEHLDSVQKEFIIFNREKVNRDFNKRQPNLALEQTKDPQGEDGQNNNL
Chain of TGF-beta receptor type-2 (Homo sapiens) (P37173 whole entry, the tested form may be a part): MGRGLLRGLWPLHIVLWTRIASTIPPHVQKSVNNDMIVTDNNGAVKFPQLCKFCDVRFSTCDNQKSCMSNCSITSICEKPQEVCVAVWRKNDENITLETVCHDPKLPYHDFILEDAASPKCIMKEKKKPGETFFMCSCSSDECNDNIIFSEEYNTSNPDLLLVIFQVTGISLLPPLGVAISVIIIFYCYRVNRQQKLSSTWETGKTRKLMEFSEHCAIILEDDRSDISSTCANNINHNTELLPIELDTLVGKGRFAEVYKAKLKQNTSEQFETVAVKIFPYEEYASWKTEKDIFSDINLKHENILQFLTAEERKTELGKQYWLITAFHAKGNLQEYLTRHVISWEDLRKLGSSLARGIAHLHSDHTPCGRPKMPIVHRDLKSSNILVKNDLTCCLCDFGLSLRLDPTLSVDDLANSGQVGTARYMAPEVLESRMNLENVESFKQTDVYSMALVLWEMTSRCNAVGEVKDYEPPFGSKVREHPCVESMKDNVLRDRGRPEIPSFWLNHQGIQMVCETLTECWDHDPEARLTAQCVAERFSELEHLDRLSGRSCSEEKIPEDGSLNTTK

COc1cc(C(=O)N2CCC(N3CCN(C)CC3)CC2)ccc1Nc1ncc2c(n1)N(C1CCCC1)c1ccccc1C(=O)N2C
100%: inhibition [1] | inhibition [2] | inhibition [3] | inhibition [4] | residual activity [5] | inhibition [6] | inhibition [8] | inhibition [9] | inhibition [10] | inhibition [11] | inhibition [12]
35%: inhibition [7]

COc1cc(N2CCC(N3CCN(C)CC3)CC2)ccc1Nc1ncc2c(n1)N(C)c1ccccc1C(=O)N2C
100%: inhibition [1] | inhibition [2] | inhibition [3] | inhibition [4] | residual activity [5] | inhibition [11]
84%: inhibition [9]
97%: inhibition [10]
18%: inhibition [7]
83%: inhibition [6]
92%: inhibition [12]
99%: inhibition [8]

CCOc1cc(C(=O)N2CCC(N3CCN(C)CC3)CC2)ccc1Nc1ncc2c(n1)N(C1CCCC1)c1ccccc1C(=O)N2C
80%: inhibition [7]
100%: inhibition [1] | inhibition [2] | inhibition [3] | inhibition [4] | residual activity [5] | inhibition [6] | inhibition [8] | inhibition [9] | inhibition [10] | inhibition [11] | inhibition [12]

From ChEMBL document CHEMBL5678810
